Tested on: mixtures of weeds: Cockspur (Echinochloa crus-galli), Fat-hen (Chenopodium album), Smartweed (Polygonum persicaria)
Assay: Field trial: adjuvant effect on Glyphosate herbicidal activity on mixed weed plots
Assay type: in vivo
Conditions: glyphosate 1080 g(a.e.).ha^-1, adjuvant 540 g.ha^-1 (2:1)
Procedure: This Example tests the effect of adjuvants on Glyphosate herbicidal activity under field conditions. The herbicide was applied to test plots of weeds at a rate of 1080 g(a.e.).ha^−1 (350 l.ha^−1 of spray containing 3.086 g.l^−1 a.e.) with a weight ratio of active to adjuvant of 2:1=540 g(adjuvant).ha^−1. Spray plots were treated with the herbicide formulations, one of each of four adjuvants of the invention (SE1, SE2, SE3, and SE4) a fatty amine ethoxylate (FAE1) for comparison, or left untreated as controls (no weed control). The spray plots were in a completely randomised block design with 3 replicates of 3×5 m plots. the sprayed plots were sprayed using a compressed-air AZO sprayer at a pressure of 2.5 bar, equipped with Teejet XR80015VS nozzles. During this trial, it rained for about 15 minutes about 2 hours after spraying, giving a good indication of the rainfastness off the formulations tested.
The test plots used mixtures of the following weeds at the 2 to 4 leaf stage:
The results of spraying were evaluated by visual comparison with untreated control blocks 12, 20 and 35 days after treatment (DAT), assessing chlorosis (chlor) and growth inhibition (inhib) as percentages with 0=no effect and 100=complete kill as compared with the untreated controls.

[1] = 12 DAT, 0=no effect, 100=complete kill

With “1-[Bis-(2-hydroxyethyl)-amino]-2-hydroxypropane-3-(stearyl 25-ethoxylate) [SE4]” the “inhib (%) growth inhibition” value (12 DAT) was 62%, the “chlor (%) chlorosis” value [1] was 63% and the “chlor (%) chlorosis” value (20 DAT) was 75%. For the same compound, the “inhib (%) growth inhibition” value (20 DAT) was 75%, the “chlor (%) chlorosis” value (35 DAT) was 65% and the “inhib (%) growth inhibition” value (35 DAT) was 68%.

For “1-[Diethylamino]-2-hydroxypropane-3-(Alc1 15-ethoxylate) [SE1]”, the “inhib (%) growth inhibition” value (12 DAT) was 67%, the “chlor (%) chlorosis” value [1] was 62% and the “chlor (%) chlorosis” value (20 DAT) was 77%. The “inhib (%) growth inhibition” value (20 DAT) was 78%, the “chlor (%) chlorosis” value (35 DAT) was 78% and the “inhib (%) growth inhibition” value (35 DAT) was 78%.

With CCCCCCCCCCCCCCCCCCOCCOCCOCCOCCOCCOCCOCCOCCOCCOCCOCCOCCOCCOCCOCCOCCOCCOCCOCCOCCOCCOCCOCCOCCOCCOCC(O)CN(CC)CC (stereo not drawn) [SE3, 1-diethylamino-2-hydroxypropane-3-(stearyl 25-ethoxylate)] the “inhib (%) growth inhibition” value (12 DAT) was 63%, the “chlor (%) chlorosis” value [1] was 62% and the “chlor (%) chlorosis” value (20 DAT) was 72%. The “inhib (%) growth inhibition” value (20 DAT) was 72%, the “chlor (%) chlorosis” value (35 DAT) was 68% and the “inhib (%) growth inhibition” value (35 DAT) was 75%.
